Experimental findings from US20230129364A1, “PYRROLIDINE DERIVATIVE, AND PHARMACEUTICAL COMPOSITION FOR PREVENTING OR TREATING BETA-AMYLOID OR TAU PROTEIN-ASSOCIATED DISEASES CONTAINING SAME” (YONSEI UNIVERSITY, UNIVERSITY - INDUSTRY FOUNDATION (UIF), priority 2019, published 2023) are described below.

In test [1] the target is T1, aggregated tau protein (wild-type K18) (Homo sapiens, UniProt P10636).
T1 construct: Tau protein (wild-type K18)
Kind of test: Tau protein aggregate degradation test (thioflavin T assay). The class given is biochemical. As to conditions: pre-aggregated tau, further 5 days at 37° C., ThT fluorescence vs control = 100%. As to the method: Tau protein (wild-type K18) was dissolved in phosphate-buffered saline (PBS, pH 7.4) at a concentration of 1 mg/mL to prepare a tau protein solution. 0.1 mg/mL of heparin and 100 μM dithiothreitol (DTT) were added to 1 mg/mL of the tau protein solution, followed by incubation at 37° C. for 5 days to induce tau protein aggregation. The aggregated tau protein was mixed with each test compound in an amount of 50 or 500 μM such that the final concentration reached 0.5 mg/mL, followed by further incubation at 37° C. for 5 days to induce reaction.
The degradation effect of each compound on the tau aggregates was measured by thioflavin T (ThT) assay (see Example 2). More specifically, 25 μL of the reaction solution was charged in each well of a 96-well plate for fluorescence analysis and 75 μL of the prepared thioflavin-T solution was charged in each well. The reaction was allowed to proceed at room temperature in a dark laboratory for 5 minutes and then fluorescence values were measured at an excitation wavelength of 450 nm and an emission wavelength of 485 nm using a multi-mode microplate reader.
The ratio of the fluorescence value measured in the group obtained by treating with each test compound to 100% of the fluorescence value of the group (control group) obtained by treating only with tau proteins and inducing aggregation for 5 days is set forth in Table 6 below: […]

The target in test [2] is T2, Tau protein (wild-type K18) (Homo sapiens, UniProt P10636).
T2 construct: Tau protein (wild-type K18)
T2 sequence (P10636 561-685 limits assumed): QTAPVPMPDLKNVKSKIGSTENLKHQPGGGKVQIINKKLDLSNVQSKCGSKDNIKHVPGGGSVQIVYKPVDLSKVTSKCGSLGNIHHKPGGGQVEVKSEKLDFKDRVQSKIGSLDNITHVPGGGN
Kind of test: Tau protein aggregation inhibition test (thioflavin T assay). It counts as biochemical. As to conditions: heparin/DTT-induced aggregation, 37° C. 5 days, ThT fluorescence vs tau-only control = 100%. The procedure: Tau protein (wild-type K18) was dissolved in phosphate-buffered saline (PBS, pH 7.4) at a concentration of 1 mg/mL to prepare a tau protein solution. In order to induce aggregation of tau proteins, 0.1 mg/mL of heparin and 100 μM dithiothreitol (DTT) were added to 1 mg/mL of the tau protein solution, followed by incubation at 37° C. for 5 days. At this time, the result was mixed with each test compound (50, 500 μM) such that the final concentration reached 0.5 mg/mL, followed by further incubation.
The inhibitory effect of each compound against tau aggregation was measured based on the intensity of fluorescence by thioflavin T (ThT) assay (see Example 2). More specifically, 25 μL of the reaction solution was charged in each well of a 96-well plate for fluorescence analysis, and 75 μL of the prepared thioflavin-T solution was then charged in each well. The reaction was allowed to proceed at room temperature in a dark laboratory for 5 minutes, and then fluorescence values were measured at an excitation wavelength of 450 nm and an emission wavelength of 485 nm using a multi-mode microplate reader.
The ratio of the fluorescence value measured in the group obtained by treating with each test compound to 100% of the fluorescence value of the group (control group) obtained by treating only with tau proteins and inducing aggregation for 5 days is set forth in Table 5 below: […]

T1 sequence (P10636 561-685 limits assumed): as above

Turning to `O=C1NC(=O)/C(=C/c2c[nH]c3ccccc23)S1` [DN204285, (Z)-5-((1H-indol-3-yl)methylene)thiazolidine-2,4-dione], the “ThT fluorescence remaining (% of control)” value was 64.04 % of control in test [1] (50 uM test compound) and 78.38 % of control in test [1] (500 uM test compound). For the same compound, the “Tau aggregation remaining (ThT fluorescence, % of tau-only control)” value in test [2] (50 uM test compound) is 53.14 % of control; in test [2] (500 uM test compound), 42.56 % of control.

`O=C1NC(=O)/C(=C/c2ccoc2)S1` [DN204287, (Z)-5-(furan-3-ylmethylene)thiazolidine-2,4-dione]: the “ThT fluorescence remaining (% of control)” value is listed as 61.17 % of control in test [1] (50 uM test compound) and 71.42 % of control in test [1] (500 uM test compound). Further, the “Tau aggregation remaining (ThT fluorescence, % of tau-only control)” value in test [2] (50 uM test compound) is given as 69.16 % of control; in test [2] (500 uM test compound) it was 59.86 % of control.

With `O=C1NC(=O)/C(=C/c2ccsc2)S1` [DN204288, (Z)-5-(thiophen-3-ylmethylene) thiazolidine-2,4-dione], the “Tau aggregation remaining (ThT fluorescence, % of tau-only control)” value in test [2] (50 uM test compound) is 74.09 % of control; in test [2] (500 uM test compound), 80.79 % of control.

Regarding `O=C1NC(=O)/C(=C/c2c[nH]c3cnccc23)S1` [DN204290, (Z)-5-((1H-pyrrolo[2,3-c]pyridin-3-yl)methylene)thiazolidine-2,4-dione], the “ThT fluorescence remaining (% of control)” value in test [1] (50 uM test compound) is recorded as 54.41 % of control; in test [1] (500 uM test compound) it was 40.38 % of control. Besides, the “Tau aggregation remaining (ThT fluorescence, % of tau-only control)” value in test [2] (50 uM test compound) is listed as 63.13 % of control; in test [2] (500 uM test compound) it was 42.61 % of control.

Regarding `O=C1NC(=O)C(Cc2csc3ccccc23)S1` (centres unmarked) [DN204291, 5-(benzo[b]thiophen-3-ylmethyl)thiazolidine-2,4-dione], the “Tau aggregation remaining (ThT fluorescence, % of tau-only control)” value in test [2] (50 uM test compound) is 65.99 % of control.

Regarding `O=C1NC(=O)C(Cc2ccoc2)S1` (centres unmarked) [DN204292, 5-(furan-3-ylmethyl)thiazolidine-2,4-dione], the “ThT fluorescence remaining (% of control)” value in test [1] (50 uM test compound) is reported as 82.23 % of control; in test [1] (500 uM test compound) it was 77.46 % of control. Besides, the “Tau aggregation remaining (ThT fluorescence, % of tau-only control)” value is listed as 63.18 % of control in test [2] (50 uM test compound) and 60.16 % of control in test [2] (500 uM test compound).

With `O=C1NC(=O)C(Cc2ccsc2)S1` (centres unmarked) [DN204293, 5-(thiophen-3-ylmethyl)thiazolidine-2,4-dione], the “ThT fluorescence remaining (% of control)” value in test [1] (500 uM test compound) is listed as 95.86 % of control. In addition, the “Tau aggregation remaining (ThT fluorescence, % of tau-only control)” value in test [2] (50 uM test compound) was 55.97 % of control; in test [2] (500 uM test compound), 58.22 % of control.

Take `O=C1NC(=O)C(Cc2c[nH]c3ccccc23)S1` (centres unmarked) [DN204295, 5-((1H-indol-3-yl)methyl)thiazolidine-2,4-dione]: the “ThT fluorescence remaining (% of control)” value in test [1] (50 uM test compound) is on record as 89.98 % of control. The “Tau aggregation remaining (ThT fluorescence, % of tau-only control)” value in test [2] (50 uM test compound) is 74.98 % of control; in test [2] (500 uM test compound), 59.6 % of control.

Consider `O=C1NC(=S)SC1Cc1csc2ccccc12` (centres unmarked) [DN204300, 5-(benzo[b]thiophen-3-ylmethyl)-2-thioxothiazolidin-4-one], for which the “Tau aggregation remaining (ThT fluorescence, % of tau-only control)” value in test [2] (50 uM test compound) is on record as 92.633 % of control.

For `O=C1NC(=S)SC1Cc1c[nH]c2ccccc12` (centres unmarked) [DN204301, 5-((1H-indol-3-yl)methyl)-2-thioxothiazolidin-4-one], the “ThT fluorescence remaining (% of control)” value is recorded as 80.31 % of control in test [1] (50 uM test compound) and 45.47 % of control in test [1] (500 uM test compound). The “Tau aggregation remaining (ThT fluorescence, % of tau-only control)” value in test [2] (50 uM test compound) is 90.337 % of control; in test [2] (500 uM test compound), 39.019 % of control.

Consider `O=C1NC(=S)SC1Cc1cnc2ccccc2c1` (centres unmarked) [DN204302, 5-(quinolin-3-ylmethyl)-2-thioxothiazolidin-4-one], for which the “Tau aggregation remaining (ThT fluorescence, % of tau-only control)” value in test [2] (50 uM test compound) is listed as 67.16 % of control; in test [2] (500 uM test compound), 47.38 % of control.

As to `O=C1NC(=S)SC1Cc1ccoc1` (centres unmarked) [DN204305, 5-(furon-3-ylmethyl)-2-thioxothiazolidin-4-one], the “ThT fluorescence remaining (% of control)” value in test [1] (50 uM test compound) is on record as 61.22 % of control; in test [1] (500 uM test compound) it was 56.43 % of control. Also, the “Tau aggregation remaining (ThT fluorescence, % of tau-only control)” value in test [2] (50 uM test compound) is given as 83.45 % of control; in test [2] (500 uM test compound), 56.13 % of control.

On to `O=C1NC(=S)SC1Cc1ccsc1` (centres unmarked) [DN204306, 5-(thiophen-3-ylmethyl)-2-thioxothiazolidin-4-one], for which the entries for the “ThT fluorescence remaining (% of control)” value in test [1] (50 uM test compound) and in test [1] (500 uM test compound) were 66.03 % of control and 73.34 % of control, respectively. Besides, the “Tau aggregation remaining (ThT fluorescence, % of tau-only control)” value in test [2] (50 uM test compound) is listed as 66.31 % of control; in test [2] (500 uM test compound), 52.16 % of control.

Turning to `O=C1NC(=O)C(Cc2cc[nH]c2)S1` (centres unmarked) [DN204307, 5-((1H-pyrrol-3-yl)methyl)thiazolidine-2,4-dione], in test [2] (500 uM test compound), the “Tau aggregation remaining (ThT fluorescence, % of tau-only control)” value is 57.26 % of control.

Turning to `CN1C(=O)N/C(=C\c2cccc3ccoc23)C1=O` [DN204670, (Z)-5-(benzofuran-7-ylmethylene)-3-methylimidazolidine-2,4-dione], the “Tau aggregation remaining (ThT fluorescence, % of tau-only control)” value in test [2] (50 uM test compound) was 87.73 % of control.

With `CN1C(=O)N/C(=C\c2csc3ccccc23)C1=O` [DN204671, (Z)-5-(benzo[b]thiophen-3-ylmethylene)-3-methylimidazolidine-2,4-dione], the “Tau aggregation remaining (ThT fluorescence, % of tau-only control)” value in test [2] (50 uM test compound) is 88.61 % of control; in test [2] (500 uM test compound) it was 77.02 % of control.

Take `CCN1C(=O)/C(=C/c2csc3ccccc23)NC1=S` [DN204810, (Z)-5-(benzo[b]thiophen-3-ylmethylene)-3-ethyl-2-thioxoimidazolidin-4-one]: the “Tau aggregation remaining (ThT fluorescence, % of tau-only control)” value in test [2] (50 uM test compound) was 87.61 % of control; in test [2] (500 uM test compound), 65.66 % of control.

As for `CCN1C(=O)/C(=C/c2cccs2)NC1=S` [DN204815, (Z)-3-ethyl-5-(thiophen-2-ylmethylene)-2-thioxoimidazolidin-4-one], the results for the “ThT fluorescence remaining (% of control)” value in test [1] (50 uM test compound) and in test [1] (500 uM test compound) were 39.88 % of control and 36.97 % of control, respectively. Moreover, the “Tau aggregation remaining (ThT fluorescence, % of tau-only control)” value in test [2] (500 uM test compound) was 70.7 % of control.

As for `CCN1C(=O)/C(=C/c2c[nH]c3cnccc23)SC1=S` [DN205779, (Z)-5-((1H-pyrrolo[2,3-c]pyridin-3-yl)methylene)-3-ethyl-2-thioxothiazolidin-4-one], the “Tau aggregation remaining (ThT fluorescence, % of tau-only control)” value in test [2] (50 uM test compound) was 83.56 % of control; in test [2] (500 uM test compound), 62.51 % of control.

Regarding `CCN1C(=O)/C(=C/c2csc3ccccc23)SC1=S` [DN205782, (Z)-5-(benzo[b]thiophen-3-ylmethylene)-3-ethyl-2-thioxothiazolidin-4-one], the entries for the “Tau aggregation remaining (ThT fluorescence, % of tau-only control)” value in test [2] (50 uM test compound) and in test [2] (500 uM test compound) were 97.55 % of control and 75.35 % of control, respectively.

Take `CCN1C(=O)/C(=C/c2cccc3ccccc23)SC1=S` [DN205783]: the “Tau aggregation remaining (ThT fluorescence, % of tau-only control)” value in test [2] (50 uM test compound) is on record as 81.81 % of control; in test [2] (500 uM test compound), 69.79 % of control.

As for `CCN1C(=O)N/C(=C\c2c[nH]c3ccncc23)C1=O` [DN205822, (Z)-5-((1H-pyrrolo[3,2-c]pyridin-3-yl)methylene)-3-ethylimidazolidine-2,4-dione], in test [2] (50 uM test compound), the “Tau aggregation remaining (ThT fluorescence, % of tau-only control)” value is 83.97 % of control.
